Reference: patent US20220152224A1, “METHODS AND MATERIALS FOR TREATING CANCER” (priority 2019, published 2022)

Test system: GSK3β
Assay: Inhibition of GSK3β during Neurog2-induced neuronal conversion of U251 cells
Assay type: cell-based, human

Nc1cccc(-c2cc3c(Oc4cccc(O)c4)ncnc3[nH]2)c1 [TWS119]
neuronal conversion efficiency of Neurog2-infected U251 cells (TWS119 10 μM for 20 days): decreased neuronal conversion efficiency

Cc1c[nH]c(-c2cnc(NCCNc3ccc(C#N)cn3)nc2-c2ccc(Cl)cc2Cl)n1 [CHIR99021]
neuronal conversion efficiency of Neurog2-infected U251 cells (CHIR99021 5 μM for 20 days): decreased neuronal conversion efficiency
